Like-named read-outs stand apart in the source and are kept apart here.
What was measured:
[1] = target: Acremonium chrysogenum NBRC30055-derived saccharide oxidase (Hapsidospora chrysogena, UniProt A0A086T4F9); test: Investigation of substrate specificity; format: biochemical
Protocol: Using each saccharide indicated in Table 4 shown below as a substrate and in the presence of oxygen, the protein purified in Example 1 described above was reacted for 5 minutes at 37° C. at pH 7.0, and the measurement was conducted in accordance with the aforementioned saccharide oxidase activity measuring method. In addition, regarding the activity toward the glucose as 100%, the relative value of the activity toward each saccharide was calculated, thereby evaluating the substrate specificity.

[2] = test system: OC[C@H]1OC(O)[C@H](O)[C@@H](O)[C@@H]1O; test: purified protein, by the assay type; details: other: saccharide as substrate of the purified protein; pH 7.0; 37.0 °C
Excerpt: Using the protein purified in the aforementioned Example together with glucose and maltose as substrates, the aforementioned saccharide oxidase activity method was used to measure the activity thereby obtaining Hanes-Woolf plots, from which each Michaelis constant (Km) was obtained.

[3] = Thermal inactivation after desugaring of egg white; format: physicochemical
Protocol: 100 μL of the desugared egg white was subjected to a heat treatment at a temperature of 54, 56, and 58° C. for 1, 3, 5, and 8 minutes, respectively, and then cooled on ice, and the residual activity of each enzyme was measured.

[4] = Investigation of pH stability; format: physicochemical; details: pH5.0 to pH10.5, 15 minutes at 37° C.; treatment at pH7.0 = 100%; maltose substrate
Protocol: (§1) Since a quinoneimine color having absorption band at a wavelength of 550 nm was formed when the enzymatic reaction advanced, the saccharide oxidase activity was measured by measuring the increase in the absorbance at a wavelength of 550 nm per minute.
The protein solution purified in the aforementioned Example 1 and the buffer solution of each pH used in the aforementioned Example 3 were mixed in equal volumes and treated for 15 minutes at 37° C., and thereafter the activity was measured by the aforementioned saccharide oxidase activity measuring method. As a substrate, maltose was used. In addition, regarding the activity when using monopotassium phosphate-sodium hydroxide buffer solution (pH7.0) for treatment as 100%, each relative value of the activity was calculated. The results are indicated in the drawing-substituting graph of FIG. 3.

[5] = Production of lactobionic acid (HPLC verification); format: biochemical; details: 3 U protein, 0.75 g lactose monohydrate, 23 hours, 40° C., 160 rpm
Protocol: 3 ml of a solution containing 0.75 g of lactose monohydrate, 0.225 g of potassium carbonate, and 3 U of the protein purified in the aforementioned Example 1 was added and shaken for 23 hours under the condition involving 40° C. and 160 rpm.
After the reaction, the sample was boiled for 10 minutes and then centrifuged at 15,000 rpm for 10 minutes. The resultant supernatant was filtered through a 0.45 μm filter and subjected to an HPLC analysis.

[6] = Investigation of thermostability; format: physicochemical
Protocol: as §1
The protein solution purified in the aforementioned Example 1 was subjected to a heat treatment for 15 minutes at a temperature of 20° C., 25° C., 30° C., 35° C., 37° C., 40° C., 45° C., 50° C., 55° C., 60° C., 65° C., 70° C., 75° C., and 80° C., and thereafter the residual activity was measured by the aforementioned saccharide oxidase activity method. Regarding the activity with no heat treatment as 100%, each value of the residual activity was calculated. The results are indicated in the drawing-substituting graph of FIG. 5.

[7] = relative activity 50% or higher versus glucose is judged satisfactory
[8] = saccharide as substrate, activity toward glucose = 100%, 37° C., pH 7.0, 5 minutes, in the presence of oxygen

OC[C@H]1O[C@@](CO)(O[C@H]2O[C@H](CO)[C@@H](O)[C@H](O)[C@H]2O)[C@@H](O)[C@@H]1O [Sucrose]
Relative activity (%) ([1]; pH 7): 0% | effect of the saccharide oxidase on the substrate (in words) [1, 7]: No effect

Lactose monohydrate
effect of the saccharide oxidase on the substrate (in words) [1]: satisfactory effect

Maltopentaose
Relative activity (%) [1, 8]: 39%

Maltohexaose
Relative activity (%) [1, 8]: 28%

OC[C@H]1O[C@@H](O[C@H]2[C@H](O)[C@@H](O)[C@H](O)O[C@@H]2CO)[C@H](O)[C@@H](O)[C@@H]1O [D(+)-Cellobiose]
effect of the saccharide oxidase on the substrate (in words) [1, 7]: satisfactory effect

Maltoheptaose
Relative activity (%) [1, 8]: 24%

O=C(CO)[C@@H](O)[C@H](O)[C@H](O)CO [D(−)-Fructose]
Relative activity (%) ([1]; pH 7): 0% | effect of the saccharide oxidase on the substrate (in words) [1, 7]: No effect

Acremonium chrysogenum NBRC30055-derived saccharide oxidase (Hapsidospora chrysogenum ATCC 11550)
Km [2]: 8 mM

OC[C@H]1O[C@H](O[C@H]2[C@H](O)[C@@H](O)[C@@H](O[C@H]3[C@H](O)[C@@H](O)[C@@H](O[C@H]4[C@H](O)[C@@H](O)C(O)O[C@@H]4CO)O[C@@H]3CO)O[C@@H]2CO)[C@H](O)[C@@H](O)[C@@H]1O (some centres unmarked) [Maltotetraose]
effect of the saccharide oxidase on the substrate (in words) [1, 7]: satisfactory effect | Relative activity (%) [1, 8]: 60% | Relative activity (%) ([1]; saccharide as substrate, activity toward glucose = 100%, 37° C., pH 7.0, 5 minutes, in the presence of oxygen, listed as maltotetraose): about 60%

O=C[C@H](O)[C@@H](O)[C@@H](O)[C@H](O)CO [Galactose]
effect of the saccharide oxidase on the substrate (in words) [1, 7]: satisfactory effect | Relative activity (%) [1, 8]: 79% | Relative activity (%) ([1]; saccharide as substrate, activity toward glucose = 100%, 37° C., pH 7.0, 5 minutes, in the presence of oxygen, listed as galactose): about 79%

Maltose monohydrate
effect of the saccharide oxidase on the substrate (in words) [1]: satisfactory effect

Maltotriose
effect of the saccharide oxidase on the substrate (in words) [1, 7]: satisfactory effect | Relative activity (%) [1, 8]: 92% | Relative activity (%) ([1]; saccharide as substrate, activity toward glucose = 100%, 37° C., pH 7.0, 5 minutes, in the presence of oxygen, listed as maltotriose): about 92%

B1: Saccharide oxidase: protein having saccharide oxidase activity purified from Acremonium chrysogenum NBRC30055, about 63 kDa, amino acid sequence SEQ. ID. NO:10 (protein, listed as Acremonium chrysogenum)
chain: MRSLAPLLSIAALARASPVDTSLLTRQETLNTCLEAAELSYVDVNSEDWEDAIVPHNLRVPVVPRAVVYATATEQIQAAVKCAVESEIRVSAKSGGHSYASMGLGGEDGSLVIQLDHWHDVTLRDDNTAVVSAGTRLGVVALELYAQGKRGISHGTCPSVGVGGHVVHGGYGFSSHTHGLALDAVVGANVVLADGSLVHASETENTDLFWALRGGGSSFGIVAEFEFETFDVSHNFSYFSIDSDISQETAEEATASLLAFQDALEEGLMDRKLNMRLSLGRPKVTLEAVYHGAKEDGRKALELFDDILGLNWSSNRTRANEADWLTMLESWTYGDPLNITYPYEGHDNAYTSSLVTRHIPEDAMASFMTYWKGVGQDRETPNWWLQMDVHGDANSRISEVDADSTAYSHRDKLWLFQFSSPLNPLRPDPEAAFALVNGYMDSIKDHLGDGEWGRYANYIDSELSREDAQTQYWSDHLDKLQAIKAELDPTQVFYNPQSIDPAAVE
residual enzyme activity in desugared egg white after heat treatment ([3]; 54 and 56° C., 1, 3, 5 and 8 minutes): no substantial reduction in the activity | residual enzyme activity in desugared egg white after heat treatment ([3]; 58° C. for 5 minutes or longer, compared with the glucose oxidase): significant reduction in the activity | residual activity after pH treatment [4]: ≥ 85% | production of lactobionic acid from lactose [5]: production of the lactobionic acid was verified | residual activity after heat treatment ([6]; 15 minutes at 45° C., pH7.0, no heat treatment = 100%): ≥ 80% | temperature up to which stability was observed ([6]; heat treatment for 15 minutes): up to 45 °C

Reference: US10167453B2, “Saccharide oxidase, and production method for same and use of same” (AMANO ENZYME INC., priority 2012, dated 2019)
